What was measured:
Assay type in all cases: cell-based, human
[1] = system: SMN protein; assay: Western blotting of SMN protein in GM00232 cells; details: GM00232, 72 h
Description: (§1) To further verify the effect of ASO-10-27 and DS06-0004 alone or in combination on SMN2 gene expression, western blotting assays were performed in GM00232 cells transfected individually or in combination with ASO-10-27 and DS06-0004. […] DS06-0004 at 1 nM, 5 nM and 25 nM increased SMN2FL by 1.2, 1.3 and 1.7 fold, respectively (FIGS. 5B and 5C).
(§2) SMA patient derived fibroblasts were obtained from Coriell Institute (Camden, N.J., USA), including GM00232 (SMA type I with 2 copies of SMN2 gene) and GM03813 (SMA type II with 3 copies of SMN2 gene). These cells were cultured at 5% C02 and 37° C. in modified MEM medium (Gibco, Thermo Fisher Scientific, Carlsbad, Calif.) supplemented with 15% bovine calf serum (Sigma-Aldrich), 1% NEAA (Gibco) and 1% penicillin/streptomycin (Gibco). To transfect oligonucleotides including saRNAs, siRNA and ASO, cells were seeded into 6-well plates at a density of 1×10^5 cells/well and were transfected with oligonucleotides at different concentrations using RNAiMax (Invitrogen, Carlsbad, Calif.) according to the reverse transfection protocol provided by the manufacturer for 72 hours (unless otherwise specified). For Risdiplam treatment of cells, Risdiplam (HY-109101, MedChem Express Company, Monmouth Junction, N.J., USA) dissolved in DMSO was added directly to cells at desired concentration for 72 hours unless specified otherwise.
(§3) Proteins were harvested from transfected cells using 1×RIPA Buffer including protease inhibitors and detected the protein concentration by BCA protein assay kits (Beyotime, P0010, China). To isolated proteins from animal tissues, tissues were harvested and lysed using 1×RIPA Buffer. Protein concentrations were measured by using BCA protein assay kits. Protein electrophoresis was performed (10 ug protein/well) with the use of a sodium dodecyl sulfate polyacrylamide gel electrophoresis (PAGE) gel, which was then transferred to a polyvinylidene difluoride (0.45 μm PVDF) membrane. The membranes were blotted with primary anti-SMN (CST, 19276, USA) or anti-α/β-Tubulin (CST, 2148s, USA) antibodies at 4° C. overnight. After three washes with TBST buffer, the membranes were incubated with anti-IgG, horseradish peroxidase-conjugated secondary antibodies (CST, 7074s and 7076s, USA) for 1 h at room temperature (RT). The membranes were then washed with TBST buffer three times for 10 min each and analyzed by Image Lab (BIO-RAD, Chemistry Doctm MP Imaging System). Band densities of SMN protein and α/β-Tubulin were quantified using ImageJ software.

[2] = system: SMN protein; assay: Western blotting of SMN protein in GM03813 cells; details: GM03813, 72 h
Description: as §1, with “GM03813” for “GM00232”, “1.5-, 1.5-” for “1.2, 1.3”, “1.6-fold,” for “1.7 fold,”, “7B” for “5B”, “7C).” for “5C).”
as §2, §3

[3] = system: SMN2 mRNA; assay: RT-qPCR of SMN2FL and SMN2 Δ7 mRNA in GM03813 cells; details: for maximum increase of SMN2FL (ceiling effect): GM03813, 72 h (Example 1)
Description: “GM03813 cells” refers to fibroblast cells provided by Coriell Institute for Medical Research. This cell line is described as SPINAL MUSCULAR ATROPHY, TYPE II; SMA2 SURVIVAL OF MOTOR NEURON 1, TELOMERIC; SMN1. The relevant gene is SMN1; the chromosomal location is 5q12.2-q13.3, the allelic variant is described as 1 exons 7 and 8 deleted, SPINAL MUSCULAR ATROPHY, TYPE I; and the identified mutation: is EX7-8DEL.
Seventy-two hours later, total cellular RNA was isolated from the treated cells and reverse transcribed into cDNA. SMN2 mRNA expression was assessed with RT-qPCR using primer pairs specific for SMN2FL or SMN2 Δ7. SMN2 mRNA expression was also assessed by semi-quantitative RT-PCR using a primer pair that amplifies both SMN2FL and SMN2 Δ7 followed by DdeI digestion (PCR/digestion). […] After digestion, both bands were reduced by 115 bp, resulting in two products: 392 bp (SMN2FL) and 338 bp (SMN2 Δ7) as shown on the gel of FIG. 3D. FIG. 3A-3D show dose-dependent changes in SMN2FL and SMNΔ7 mRNA as assessed by RT-qPCR and PCR/digestion respectively. FIG. 3E-3G are graphic plots of data from quantitating the intensity of bands in FIG. 3D.
as §2
For RNA isolation from cultured cells, total cellular RNA was isolated from treated cells using an RNeasy Plus Mini kit (Qiagen, Hilden, Germany) according to its manual. To isolated RNA from animal tissues, tissues were harvested and stored at RNA later (AM7021, Thermo Fisher). Total RNA was then isolated using MagPure Total RNA Micro LQ kit (Magen, R6621, China) by auto-pure96 machine (ALLSHENG, China). The resultant RNA (1 μg) was reverse transcribed into cDNA by using a PrimeScript RT kit containing gDNA Eraser (Takara, Shlga, Japan). The resultant cDNA was amplified in an ABI 7500 Fast Real-time PCR System (Applied Biosystems; Foster City, Calif.) using SYBR Premix Ex Taq 11 (Takara, Shlga, Japan) reagents and primers which specifically amplified full-length (SMN2FL) or A7 SMN2 mRNA (SMN2 Δ7) (FIG. 1). The reaction conditions were: 95° C. for 3 seconds (1 cycle) and 60° C. for 30 seconds (40 cycles). Amplification of TBP gene served as an internal control.

[4] = GM03813, 72 h, 1 nM (Example 4, FIG. 6A)
[5] = GM03813, 72 h, 5 nM (Example 4)
[6] = GM03813, 72 h, 25 nM (Example 4)
[7] = GM03813, 72 h, alone or in combination at 10 nM, RT-qPCR (Example 10, FIG. 12A)
[8] = GM03813, 72 h, 100 nM (Example 1)
[9] = GM03813, 72 h, 1 nM (Example 8)
[10] = GM03813, 72 h, 1 nM to 50 nM (Example 1, FIG. 3B)
[11] = GM03813, 72 h, 5 nM (Example 8)
[12] = GM03813, 72 h, 25 nM (Example 8)

Nusinersen [ASO-10-27]
SMN protein fold change ([1]; 1 nM (Example 3, FIG. 5)): 1.4 fold
SMN protein fold change ([1]; 5 nM (Example 3)): 2.3 fold
SMN protein fold change ([1]; 25 nM (Example 3)): 2.9 fold
SMN protein fold change ([2]; 1 nM (Example 5, FIG. 7)): 1.2 fold
SMN protein fold change ([2]; 5 nM (Example 5)): 1.5 fold
SMN protein fold change ([2]; 25 nM (Example 5)): 1.9 fold
SMN protein fold change ([2]; alone or in combination at 10 nM (Example 10, FIG. 12D-12E)): 2.3 fold
maximum increase of SMN2FL (ceiling effect) [3]: ~2 fold
SMN2FL mRNA fold change ([3]; GM03813, 72 h, 1 nM (Example 1, FIG. 3A)): 1.5 fold
SMN2FL mRNA fold change [3, 4]: 1.2 fold
SMN2 Δ7 mRNA change ([3]; GM03813, 72 h, 1 nM, 5 nM and 25 nM (Example 4)): decrease
SMN2 Δ7 mRNA change ([3]; GM03813, 72 h, 5 nM (Example 1)): decrease
SMN2FL mRNA fold change [3, 5]: 2.1 fold
SMN2FL mRNA fold change ([3]; GM03813, 72 h, 5 nM, peak increase (Example 1, FIG. 3A)): 2.0 fold
SMN2FL mRNA fold change [3, 6]: 2.1 fold
SMN2FL mRNA fold change [3, 7]: 1.4 fold
SMN2 Δ7 mRNA fold change [3, 7]: 0.3 fold

Cc1cn2nc(-c3cc(=O)n4cc(N5CCNC6(CC6)C5)ccc4n3)cc(C)c2n1 [Risdiplam]
SMN protein fold change ([1]; 50 nM (Example 7, FIG. 9)): 1.7 fold
SMN protein fold change ([1]; 250 nM (Example 7)): 1.9 fold
SMN protein fold change ([1]; 1250 nM (Example 7)): 2.6 fold
SMN protein fold change ([2]; 50 nM (Example 9, FIG. 11)): 1.1 fold
SMN protein fold change ([2]; 250 nM (Example 9)): 1.7 fold
maximum increase of SMN2FL (ceiling effect) [3]: ~2 fold
SMN2FL mRNA fold change ([3]; GM03813, 72 h, 50 nM (Example 8, FIG. 10A-10C)): 1.0 fold
SMN2 Δ7 mRNA change ([3]; GM03813, 72 h, 50 nM, 250 nM and 1250 nM (Example 8)): decrease
decrease of SMN2 Δ7 mRNA [3, 8]: 36%
SMN2FL mRNA fold change ([3]; GM03813, 72 h, 100 nM (Example 1, FIG. 3C)): 1.2 fold
SMN2FL mRNA fold change ([3]; GM03813, 72 h, 250 nM (Example 8)): 1.4 fold
decrease of SMN2 Δ7 mRNA ([3]; GM03813, 72 h, 1000 nM (Example 1)): 98%
SMN2FL mRNA fold change ([3]; GM03813, 72 h, 1000 nM (Example 1, FIG. 3C)): 1.8 fold
SMN2FL mRNA fold change ([3]; GM03813, 72 h, 1250 nM (Example 8)): 2.1 fold

DS06-0004: saRNA targeting SMN2 promoter at -281; SEQ ID NO: 476/477 (Table 8: SEQ ID NO: 131/288) (chain 1 AGACGAGGCCUAAGCAACATT; chain 2 UGUUGCUUAGGCCUCGUCUTT; chemistry not given here)
SMN protein fold change ([1]; 1 nM (Example 3, FIG. 5)): 1.2 fold
SMN protein fold change ([1]; 5 nM (Example 3)): 1.3 fold
SMN protein fold change ([1]; 25 nM (Example 3)): 1.7 fold
SMN protein fold change ([2]; 1 nM (Example 5, FIG. 7)): 1.5 fold
SMN protein fold change ([2]; 5 nM (Example 5)): 1.5 fold
SMN protein fold change ([2]; 25 nM (Example 5)): 1.6 fold
SMN2 Δ7 mRNA fold change ([3]; GM03813, 72 h, 1 nM (Example 4)): 2.5 fold
SMN2FL mRNA fold change [3, 4]: 2.1 fold
SMN2FL mRNA fold change [3, 9]: 1.7 fold
SMN2 Δ7 mRNA fold change [3, 9]: 1.8 fold
highest fold change of SMN2FL mRNA [3, 10]: 2.9 fold
highest fold change of SMN2 Δ7 mRNA [3, 10]: 2.7 fold
SMN2FL mRNA fold change [3, 5]: 2.6 fold
SMN2 Δ7 mRNA fold change [3, 5]: 2.5 fold
SMN2FL mRNA fold change [3, 11]: 2.2 fold
SMN2 Δ7 mRNA fold change [3, 11]: 2.3 fold
SMN2FL mRNA fold change [3, 6]: 2.2 fold
SMN2 Δ7 mRNA fold change [3, 6]: 2.1 fold
SMN2FL mRNA fold change [3, 12]: 2.3 fold
SMN2 Δ7 mRNA fold change [3, 12]: 2.3 fold
SMN2 mRNA expression [3, 8]: did not further increase

Reference: patent US20230287416A1, “COMBINATORY TREATMENT OF SMA WITH SARNA AND MRNA MODULATORS” (RACTIGEN THERAPEUTICS, priority 2020, published 2023)
